{"source": "patent US20240245677A1", "about": "“SELECTED COMPOUNDS FOR TARGETED DEGRADATION OF BRD9” (C4 THERAPEUTICS, INC., priority 2021, published 2024)", "assay": "Pharmacokinetic study in male CD1 mice", "assay_type": "in vivo, mouse", "conditions": "for concentration at 0.033 h / concentration at 0.33 h / concentration at 1 h / concentration at 2 h / concentration at 4 h / concentration at 8 h / concentration at 24 h / AUC(0-t): male, CD1, mouse", "procedure": "The pharmacokinetic (PK) profile in plasma of Compound 1 was determined in male CD1 mice following single dose intravenous (IV) (2 mg/kg) and per os (PO) (10 mg/kg) administration. This study was performed under non-GLP conditions, and unless otherwise stated, all analytical reagents were at least standard laboratory reagent grade, and deionized water was prepared at the study site. The characteristics of Compound 1 used in this study were as follows: molecular weight of base, 710.78; molecular weight of Compound 1 with salt, 824.81; purity on as is basis, 99.28%. All animals were housed in cages with clean bedding and maintained and monitored for good health and at the discretion of the laboratory animal veterinarian. Certified rodent diet was provided, and water was available ad libitum. […] Normal healthy animals certified by the attending veterinarian were selected and acclimatized for a minimum of three days prior to initiation of the study. Animals were identified by body markings. Test animals were weighed prior to drug administration, and the standard weight of the animals used was 30 grams. The animals were divided into two groups, IV group and PO group, with each group containing 3 test animals each and 2 spare animals. The IV dose was administered by intravenous injection into the tail vein and PO dose was administered via oral gavage. The dosing volume was 5 mL/kg body weight for both groups. The dosing concentration was 0.4 mg/mL for the IV group and 2 mg/mL for the PO group. The animals were in fasted state during the study. For both dosing groups, blood was collected from the saphenous vein (serial sampling) for plasma isolation at 0.033, 0.33, 1, 2, 4, 6, 8, and 24 hour timepoints. The anti-coagulant solution used was 6% (v/v) sodium citrate (200 mM, pH 4.79). For sample collection, the mice were restrained, and the back of the hind leg was shaved until the saphenous vein was visible. The hind limb was immobilized, and slight pressure was applied gently above the knee joint. While taking aseptic precautions, the vein was punctured using a 20 G needle and 20-30 μL of blood was collected in pre-labeled pre-chilled tubes. After blood collection from each animal, the sample from that animal was recorded in the sample collection sheet. After collection of each blood sample, the blood sample was stored on ice prior to centrifugation. Blood samples were centrifuged within 0.5 hours of collection to separate plasma. Centrifugation was conducted at 2500×g for 15 minutes at 4° C. The plasma was separated and transferred to pre-labeled micro-centrifuge tubes and promptly frozen at -80° C.±10° C. and stored until bioanalysis was performed. Each sample was identified by test compound, group, animal number, and collection time point. A fit-for-purpose bioanalytical method was developed for analyzing the plasma samples. One set of nine standards was run before the sample batch and was used for plotting the calibration curve. Quality control (QC) samples were prepared at a minimum of three concentrations, i.e., LQC (not more than 5 times to that of lowest standard concentration), HQC (not less than 75% of the highest standard concentration), and MQC (between the low and high concentration). A minimum of 6 QC samples were prepared (three concentrations in duplicate). One set of QC (LQC, MQC and HQC) samples were analyzed before and after the sample batch. Samples were analyzed by Exion AD (Sciex, Framingham, MA, USA) high-pressure liquid chromatography (HPLC) system followed by tandem mass spectroscopy analysis (MS/MS) with Q TRAP 4500 (Sciex, Framingham, MA). The samples were resolved on a Kinetex® EVO C18 4.5*50 mm, 5 μm column (Phenomenex, Inc., Torrance, CA, USA). […] The flow rate was set at 1 mL/min. […] A positive electrospray ionization (ESI) method was used for detecting analytes and internal standard by mass spectroscopy. The MRM conditions were […]", "key": {"[1]": {"conditions": "mouse, plasma, male CD1 mice, 2 mg/kg IV, Mean"}, "[2]": {"conditions": "mouse, plasma, male CD1 mice, 10 mg/kg PO, Mean"}}, "note": "Where “and” joins values, the source holds several entries; their conditions need not be identical. Equal entries are not always repeated. Where two headings read alike, the source gives them in different places.", "data": [{"compound": "COc1cc(-c2cn(C)c(=O)c(C)c2C)cc(OC)c1CN1CC[C@H](N2CCN(c3ccc(N[C@H]4CCC(=O)NC4=O)cc3F)CC2)C(F)(F)C1", "note": "[Compound 1, (S)-3-((4-(4-((S)-1-(2,6-dimethoxy-4-(1,4,5-trimethyl-6-oxo-1,6-dihydropyridin-3-yl)benzyl)-3,3-difluoropiperidin-4-yl)piperazin-1-yl)-3-fluorophenyl)amino)-piperidine-2,6-dione]", "values": [{"measurement": "Plasma Concentration, individual mice", "setting": "2 mg/kg IV, 0.033 h", "result": "1282.85 ng/mL and 1230.25 ng/mL"}, {"measurement": "Plasma Concentration, individual mice", "setting": "2 mg/kg IV, 0.33 h", "result": "1069.92 ng/mL and 907.03 ng/mL"}, {"measurement": "Plasma Concentration, individual mice", "setting": "2 mg/kg IV, 1 h", "result": "778.91 ng/mL and 554.87 ng/mL"}, {"measurement": "Plasma Concentration, individual mice", "setting": "2 mg/kg IV, 2 h", "result": "530.20 ng/mL and 551.12 ng/mL"}, {"measurement": "Plasma Concentration, individual mice", "setting": "2 mg/kg IV, 4 h", "result": "402.36 ng/mL and 398.41 ng/mL"}, {"measurement": "Plasma Concentration, individual mice", "setting": "2 mg/kg IV, 8 h", "result": "230.84 ng/mL and 279.05 ng/mL"}, {"measurement": "Plasma Concentration, individual mice", "setting": "2 mg/kg IV, 24 h", "result": "8.14 ng/mL and 10.81 ng/mL"}, {"measurement": "Plasma Concentration, individual mice", "setting": "10 mg/kg PO, 0.033 h", "result": "113.39 ng/mL and 45.23 ng/mL and 29.34 ng/mL"}, {"measurement": "Plasma Concentration, individual mice", "setting": "10 mg/kg PO, 0.33 h", "result": "1350.89 ng/mL and 1805.33 ng/mL"}, {"measurement": "Plasma Concentration, individual mice", "setting": "10 mg/kg PO, 1 h", "result": "3702.63 ng/mL and 3513.39 ng/mL"}, {"measurement": "Plasma Concentration, individual mice", "setting": "10 mg/kg PO, 2 h", "result": "3236.77 ng/mL and 3069.59 ng/mL"}, {"measurement": "Plasma Concentration, individual mice", "setting": "10 mg/kg PO, 4 h", "result": "1775.48 ng/mL and 1635.06 ng/mL"}, {"measurement": "Plasma Concentration, individual mice", "setting": "10 mg/kg PO, 8 h", "result": "1094.97 ng/mL and 687.92 ng/mL"}, {"measurement": "Plasma Concentration, individual mice", "setting": "10 mg/kg PO, 24 h", "result": "40.19 ng/mL and 35.09 ng/mL"}, {"measurement": "CI", "setting": "male CD1 mice, 2 mg/kg IV, Mean", "result": 6.201, "unit": "mL/min/kg"}, {"measurement": "concentration at 0.033 h", "setting": "plasma, intravenous, 2 mg/kg, 2 mg/kg IV, 0.033 h, read-out: Plasma Concentration, Average", "result": 1400, "unit": "ng/mL"}, {"measurement": "concentration at 0.033 h", "setting": "plasma, intravenous, 2 mg/kg, 2 mg/kg IV, 0.033 h, read-out: Plasma Concentration, individual mice", "result": 1690, "unit": "ng/mL"}, {"measurement": "concentration at 0.33 h", "setting": "plasma, intravenous, 2 mg/kg, 2 mg/kg IV, 0.33 h, read-out: Plasma Concentration, Average", "result": 1090, "unit": "ng/mL"}, {"measurement": "concentration at 0.33 h", "setting": "plasma, intravenous, 2 mg/kg, 2 mg/kg IV, 0.33 h, read-out: Plasma Concentration, individual mice", "result": 1300, "unit": "ng/mL"}, {"measurement": "concentration at 1 h", "setting": "plasma, intravenous, 2 mg/kg, 2 mg/kg IV, 1 h, read-out: Plasma Concentration, Average", "result": 760, "unit": "ng/mL"}, {"measurement": "concentration at 1 h", "setting": "plasma, intravenous, 2 mg/kg, 2 mg/kg IV, 1 h, read-out: Plasma Concentration, individual mice", "result": 947, "unit": "ng/mL"}, {"measurement": "concentration at 2 h", "setting": "plasma, intravenous, 2 mg/kg, 2 mg/kg IV, 2 h, read-out: Plasma Concentration, Average", "result": 630, "unit": "ng/mL"}, {"measurement": "concentration at 2 h", "setting": "plasma, intravenous, 2 mg/kg, 2 mg/kg IV, 2 h, read-out: Plasma Concentration, individual mice", "result": 809, "unit": "ng/mL"}, {"measurement": "concentration at 4 h", "setting": "plasma, intravenous, 2 mg/kg, 2 mg/kg IV, 4 h, read-out: Plasma Concentration, Average", "result": 456, "unit": "ng/mL"}, {"measurement": "concentration at 4 h", "setting": "plasma, intravenous, 2 mg/kg, 2 mg/kg IV, 4 h, read-out: Plasma Concentration, individual mice", "result": 567, "unit": "ng/mL"}, {"measurement": "concentration at 8 h", "setting": "plasma, intravenous, 2 mg/kg, 2 mg/kg IV, 8 h, read-out: Plasma Concentration, Average", "result": 256, "unit": "ng/mL"}, {"measurement": "concentration at 8 h", "setting": "plasma, intravenous, 2 mg/kg, 2 mg/kg IV, 8 h, read-out: Plasma Concentration, individual mice", "result": 257, "unit": "ng/mL"}, {"measurement": "concentration at 24 h", "setting": "plasma, intravenous, 2 mg/kg, 2 mg/kg IV, 24 h, read-out: Plasma Concentration, Average", "result": 10.2, "unit": "ng/mL"}, {"measurement": "concentration at 24 h", "setting": "plasma, intravenous, 2 mg/kg, 2 mg/kg IV, 24 h, read-out: Plasma Concentration, individual mice", "result": 11.5, "unit": "ng/mL"}, {"measurement": "AUC(0-t)", "setting": "plasma, iv, 2 mg/kg, male CD1 mice, 2 mg/kg IV, Mean", "result": 5390, "unit": "ng·h/mL"}, {"measurement": "concentration at 0.033 h", "setting": "plasma, oral, 10 mg/kg, 10 mg/kg PO, 0.033 h, read-out: Plasma Concentration, Average", "result": 62.7, "unit": "ng/mL"}, {"measurement": "concentration at 0.33 h", "setting": "plasma, oral, 10 mg/kg, 10 mg/kg PO, 0.33 h, read-out: Plasma Concentration, Average", "result": 1750, "unit": "ng/mL"}, {"measurement": "concentration at 0.33 h", "setting": "plasma, oral, 10 mg/kg, 10 mg/kg PO, 0.33 h, read-out: Plasma Concentration, individual mice", "result": 2100, "unit": "ng/mL"}, {"measurement": "concentration at 1 h", "setting": "plasma, oral, 10 mg/kg, 10 mg/kg PO, 1 h, read-out: Plasma Concentration, Average", "result": 3370, "unit": "ng/mL"}, {"measurement": "concentration at 1 h", "setting": "plasma, oral, 10 mg/kg, 10 mg/kg PO, 1 h, read-out: Plasma Concentration, individual mice", "result": 2890, "unit": "ng/mL"}, {"measurement": "concentration at 2 h", "setting": "plasma, oral, 10 mg/kg, 10 mg/kg PO, 2 h, read-out: Plasma Concentration, Average", "result": 3150, "unit": "ng/mL"}, {"measurement": "concentration at 2 h", "setting": "plasma, oral, 10 mg/kg, 10 mg/kg PO, 2 h, read-out: Plasma Concentration, individual mice", "result": 3150, "unit": "ng/mL"}, {"measurement": "concentration at 4 h", "setting": "plasma, oral, 10 mg/kg, 10 mg/kg PO, 4 h, read-out: Plasma Concentration, Average", "result": 1770, "unit": "ng/mL"}, {"measurement": "concentration at 4 h", "setting": "plasma, oral, 10 mg/kg, 10 mg/kg PO, 4 h, read-out: Plasma Concentration, individual mice", "result": 1880, "unit": "ng/mL"}, {"measurement": "concentration at 8 h", "setting": "plasma, oral, 10 mg/kg, 10 mg/kg PO, 8 h, read-out: Plasma Concentration, Average", "result": 983, "unit": "ng/mL"}, {"measurement": "concentration at 8 h", "setting": "plasma, oral, 10 mg/kg, 10 mg/kg PO, 8 h, read-out: Plasma Concentration, individual mice", "result": 1170, "unit": "ng/mL"}, {"measurement": "concentration at 24 h", "setting": "plasma, oral, 10 mg/kg, 10 mg/kg PO, 24 h, read-out: Plasma Concentration, Average", "result": 37.8, "unit": "ng/mL"}, {"measurement": "concentration at 24 h", "setting": "plasma, oral, 10 mg/kg, 10 mg/kg PO, 24 h, read-out: Plasma Concentration, individual mice", "result": 38.2, "unit": "ng/mL"}, {"measurement": "AUC(0-t)", "setting": "plasma, po, 10 mg/kg, male CD1 mice, 10 mg/kg PO, Mean, first AUClast column", "result": 20000, "unit": "ng·h/mL"}, {"measurement": "AUC(0-t)", "setting": "plasma, po, 10 mg/kg, male CD1 mice, 10 mg/kg PO, Mean, second AUClast column", "result": 20200, "unit": "ng·h/mL"}, {"measurement": "AUC(0-inf)", "setting": "[1]", "result": 5450, "unit": "ng·h/mL"}, {"measurement": "C0", "setting": "[1]", "result": 1440, "unit": "ng/mL"}, {"measurement": "MRT last", "setting": "[1]", "result": 5.15, "unit": "h"}, {"measurement": "half-life", "setting": "[1]", "result": 219, "unit": "min"}, {"measurement": "Vd", "setting": "mouse, plasma, male CD1 mice, 2 mg/kg IV, Mean, read-out: Vdss", "result": 2.01, "unit": "L/kg"}, {"measurement": "Cmax", "setting": "[2]", "result": 3460, "unit": "ng/mL"}, {"measurement": "MRT last", "setting": "[2]", "result": 5.38, "unit": "h"}, {"measurement": "Tmax", "setting": "[2]", "result": 1.33, "unit": "h"}, {"measurement": "bioavailability", "setting": "[2]", "result": 74.1, "unit": "%"}, {"measurement": "half-life", "setting": "[2]", "result": 213, "unit": "min"}]}]}
